# Several values for one entry are separate records, joined by “and”; a condition that tells them apart may be missing. Identical values can stand only once. Like-named read-outs stand apart in the source and are kept apart here.
# Key:
# [1] = system: M. pneumoniae wild type (laboratory strain M129); assay: Mpn growth inhibition in 96-well plates (growth index A450/A560), wild type strain; format: cell-based, Mycoplasma pneumoniae; details: for MIC: Mycoplasmoides pneumoniae
# Experimental: (§1) A series dilution of each compound in Mycoplasma growth medium was added to Mpn cultures in 96-well plates. The plates were sealed and incubated at 37°C. Mpn growth was monitored by using growth index value e.g. the ratio of absorbance at 450 nm and 560 nm of the culture medium. Thirty nucleoside and nucleobase analogs and a nucleoside transporter inhibitor were included, and two Mpn strains, wild type and a thyA mutant (lacking TS activity), were used.
# (§2) Nucleoside and nucleobase analogs were dissolved in dimethyl sulfoxide (DMSO) as stock solutions and diluted with Mpn culture medium to the desired concentration immediately prior to use.
# (§3) Mpn laboratory strain M129 wild type and a thyA mutant strain [31] were used in this study. Mpn was cultured at 37°C in a CO2 incubator using 75 cm^2 tissue culture flasks containing 50 ml Hayflick’s medium, and harvested at day 4 when the medium color change was observed. The cells were harvested and the pellet was resuspended in 6 ml fresh medium and the cfu/ml was determined by serial dilution (10-fold) and plating on broth agar plate. Colonies was counted and cfu/ml was calculated.
# (§4) Inhibition studies were performed in 96-well plates containing 200 μl Mpn culture (approximately 10^6 cfu ml^-1) in Hayflick’s medium and 200 μl each compound in series dilutions (2-fold) with the growth medium, with three to four replicas. The plates were sealed with clear adhesive sheets and incubated at 37°C incubator. Absorbance ratio at 450 nm and 560 nm was used as Mpn growth index, which was measured daily, and by visual detection for at least 8 days, as previously described. […] The MICs (minimal inhibitory concentration required to inhibit Mpn growth to 90%) were determined as the lowest concentration at which the growth index was ≈ 10% of the control values (at the time when the control culture medium color turned yellow), essentially as described.
# [2] = system: M. pneumoniae thyA mutant (lacking TS activity); assay: microbe, parasite or virus in culture; format: cell-based, Mycoplasma pneumoniae; details: Mycoplasmoides pneumoniae, read-out: thyA mutant MIC
# Experimental: as §1, §2, §3, §4
# Mpn wild type cells = assay: Uptake and metabolism of tritium labelled natural nucleoside and nucleobases in the presence of analogs; format: cell-based, Mycoplasma pneumoniae; details: 10 μM analog, 70 hours; for [3H]-Ade Total uptake / [3H]-Gua Total uptake / [3H]-Hx Total uptake / [3H]-Ura Total uptake / [3H]-dT Total uptake: 37°C, radioactivity in cells / total added; for [3H]-Ade Incorporation / [3H]-Gua Incorporation / [3H]-Hx Incorporation / [3H]-Ura Incorporation / [3H]-dT Incorporation: acid insoluble fraction / total in cells
# Experimental: The cells were harvested and analyzed essentially as described. Analogs used were dipyridamole, 6-thioguanine (6-TG), trifluorothymidine (TFT), gemcitabine (dFdC) and 5-fluorodeoxyuridine (5FdU). Total uptake is the percent of radioactivity recovered in the cells divided by total radioactivity added to the growth medium. Percent of acid insoluble (radioactivity found in DNA and RNA) was also calculated. These experiments were done more than three times and data are given as mean ± SD.
# human HPRT = target: T1, human HPRT (Homo sapiens, UniProt P00492); assay: HPRT inhibition, DE-81 filter paper assay; format: biochemical
# T1 construct: made in house
# T1 sequence (P00492 1-218): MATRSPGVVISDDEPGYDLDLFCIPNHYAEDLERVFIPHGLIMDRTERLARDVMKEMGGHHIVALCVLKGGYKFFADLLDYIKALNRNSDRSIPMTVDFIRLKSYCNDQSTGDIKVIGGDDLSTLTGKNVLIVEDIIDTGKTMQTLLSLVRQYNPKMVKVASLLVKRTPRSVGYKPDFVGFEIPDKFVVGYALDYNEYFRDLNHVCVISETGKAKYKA
# Experimental: (§5) The reaction was initiated by addition of the enzyme, and at 0, 5, 10, and 15 min intervals, 10 μl reaction mixture was withdrawn and spotted onto the DE81 filter paper and dried. The unreacted substrate was washed and the products were eluted and counted in a liquid scintillation counter. With [^3H]-Gua as substrate the reaction (in a total of 25 μl) was initiated by addition of the enzyme (10 μl), incubated at 37°C for 2 min, stopped by addition of 1 M HCl (10 μl), and placed immediately on ice. After neutralization, 15 μl of the mixture was spotted onto the DE81-filter paper. The filters were then washed, and the products were eluted and counted by liquid scintillation.
# Mpn HPRT = target: T2, Mpn HPRT (Mycoplasmoides pneumoniae, UniProt P75119); assay: biochemical
# T2 sequence (P75119 1-175): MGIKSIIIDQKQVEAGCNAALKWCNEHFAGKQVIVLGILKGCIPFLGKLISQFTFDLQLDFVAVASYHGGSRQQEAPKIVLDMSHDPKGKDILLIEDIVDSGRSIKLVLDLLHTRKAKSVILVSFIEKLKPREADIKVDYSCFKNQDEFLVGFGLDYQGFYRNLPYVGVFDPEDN
# Experimental: as §5
# [3] = strain not specified, 90% growth inhibition
# [4] = minimal concentration producing 90% inhibition, wild type Mpn, read-out: Wild type MIC
structure (smiles),measurement,setting,value
Cn1cnc([N+](=O)[O-])c1Sc1ncnc2nc[nH]c12 [Azathioprine],MIC,[1]; read-out: Wild type MIC,> 500 µg/mL
same,MIC,[2],> 500 µg/mL
Nc1nc(F)nc2c1ncn2[C@@H]1O[C@H](COP(=O)(O)O)[C@@H](O)[C@@H]1O [Fludarabine phosphate],MIC,[1]; read-out: Wild type MIC,> 500 µg/mL
same,MIC,[2],> 500 µg/mL
O=c1[nH]c(=O)n([C@H]2C[C@H](O)[C@@H](CO)O2)cc1I [5-iododeoxyuridine],MIC,[1]; read-out: Wild type MIC,15.6 µg/mL
same,Inhibition of wild type Mpn growth (in words),[1]; wild type Mpn,only inhibited the wild type Mpn growth
same,MIC,[2],> 500 µg/mL
"Nc1ccn([C@@H]2O[C@H](CO)[C@@H](O)C2(F)F)c(=O)n1 [Gemcitabine (dFdC), Gemcitabine]",MIC,"[1]; read-out: MIC (Mpn growth), strain not specified, 90% growth inhibition",~2.5 µg/mL
same,MIC,[1]; read-out: Wild type MIC,2.4 µg/mL
same,MIC (Mpn growth),[1]; [3],approximately 2 μg ml^-1
same,[3H]-Ade Total uptake,Mpn wild type cells,0.41±0.08%
same,[3H]-Gua Total uptake,Mpn wild type cells,0.10±0.02%
same,[3H]-Hx Total uptake,Mpn wild type cells,0.009±0.0002%
same,[3H]-Ura Total uptake,Mpn wild type cells,0.12±0.001%
same,[3H]-dT Total uptake,Mpn wild type cells,5.2±0.4%
same,[3H]-Ade Incorporation,Mpn wild type cells,39±8%
same,[3H]-Gua Incorporation,Mpn wild type cells,90±6%
same,[3H]-Hx Incorporation,Mpn wild type cells,67±7%
same,[3H]-Ura Incorporation,Mpn wild type cells,26±6%
same,[3H]-dT Incorporation,Mpn wild type cells,96.7±1.1%
same,MIC,[2],2.4 µg/mL
CC(C)[C@H](N)C(=O)OCCOCn1cnc2c(=O)[nH]c(N)nc21 [Valacyclovir],MIC,[1]; read-out: Wild type MIC,> 500 µg/mL
same,Inhibition of Mpn growth (in words),[1]; strain not specified,did not inhibit Mpn growth
same,MIC,[2],> 500 µg/mL
Cc1cn([C@H]2C=C[C@@H](CO)O2)c(=O)[nH]c1=O [Stavudine],MIC,[1]; read-out: Wild type MIC,7.8 µg/mL
same,MIC,[2],17.8 µg/mL
Nc1ncn([C@@H]2O[C@H](CO)[C@@H](O)[C@H]2O)c(=O)n1 [5-azacytidine],MIC,[1]; read-out: Wild type MIC,> 500 µg/mL
same,MIC,[2],> 500 µg/mL
O=c1[nH]cc(F)c(=O)[nH]1 [5-fluorouracil],MIC,[1]; read-out: Wild type MIC,31.2 µg/mL
same,MIC,[2],31.2 µg/mL
"Cn1c(=O)c2c(ncn2CC(O)CO)n(C)c1=O (stereo not shown) [7-(2,3-dihydroxypropyl)theophylline]",MIC,[1]; read-out: Wild type MIC,> 500 µg/mL
same,MIC,[2],> 500 µg/mL
Nc1nc(O)c2ncn(COC(CO)CO)c2n1 [Gancyclovir],MIC,[1]; read-out: Wild type MIC,7.8 µg/mL
same,Inhibition of wild type Mpn growth (in words),[1]; wild type Mpn,inhibited wild type Mpn
same,MIC,[2],> 500 µg/mL
Nc1ncnc2c1ncn2[C@@H]1O[C@H](CO)[C@@H](O)[C@@H]1O [Arabinosyl adenine],MIC,[1]; [4],> 500 µg/mL
same,MIC,[2],> 500 µg/mL
CC(=O)CCCCn1c(=O)c2c(ncn2C)n(C)c1=O [Pentoxifylline],MIC,[1]; read-out: Wild type MIC,62.5 µg/mL
same,Inhibition of wild type Mpn growth (in words),[1]; wild type Mpn,inhibited wild type Mpn
same,MIC,[2],> 500 µg/mL
"Nc1nc2nc[nH]c2c(=S)[nH]1 [6-thioguanine (6-TG), 6-thioguanine]",MIC,[1]; read-out: Wild type MIC,0.2 µg/mL
same,MIC (Mpn growth),[1]; [3],0.20 µg/mL
same,IC50,"human HPRT; 10 μM [3H]-guanine, read-out: IC50 Human HPRT, substrate guanine",39.8 ± 4 µM
same,IC50,"human HPRT; IC50 Human HPRT, substrate hypoxanthine, 10 μM [3H]-hypoxanthine",20.5 ± 6.5 µM
same,[3H]-Ade Total uptake,Mpn wild type cells,0.66±0.1%
same,[3H]-Gua Total uptake,Mpn wild type cells,0.080±0.002%
same,[3H]-Hx Total uptake,Mpn wild type cells,0.005 ± 0.0004%
same,[3H]-Ura Total uptake,Mpn wild type cells,0.21±0.003%
same,[3H]-dT Total uptake,Mpn wild type cells,7.9±0.6%
same,[3H]-Ade Incorporation,Mpn wild type cells,46±3%
same,[3H]-Gua Incorporation,Mpn wild type cells,67±3%
same,[3H]-Hx Incorporation,Mpn wild type cells,43±6%
same,[3H]-Ura Incorporation,Mpn wild type cells,39±8%
same,[3H]-dT Incorporation,Mpn wild type cells,97.4±0.7%
same,IC50,"Mpn HPRT; substrate guanine, 10 μM [3H]-guanine",3.2 µM and 3.16 µM
same,IC50,"Mpn HPRT; substrate hypoxanthine, 10 μM [3H]-hypoxanthine",3.5 ± 0.5 µM
same,MIC,[2],0.2 µg/mL
Nc1ccn(C[C@@H](CO)OCP(=O)(O)O)c(=O)n1 [Cidofovir],MIC,[1]; read-out: Wild type MIC,31.2 µg/mL
same,MIC,[2],31.2 µg/mL
Oc1ncnc2[nH]ncc12 [Allopurinol],MIC,[1]; [4],> 500 µg/mL
same,MIC,[2],> 500 µg/mL

# — article PMC3750255, “Inhibition of Mycoplasma pneumoniae growth by FDA-approved anticancer and antiviral nucleoside and nucleobase analogs” (BMC Microbiology, 2013)
